From US7977354B2, “Heterocyclic compounds, their preparation and their use as medicaments, in particular as anti-alzheimer agents” (priority 2005, dated 2011)
Read-outs that look alike come from different tables or passages of the source.

Key:
[1] = target: T1, human acetylcholinesterase (Homo sapiens, UniProt P22303); test: biochemical; assay type: biochemical; details: for Inhibition of human acetylcholinesterase (apparent IC50), result in words: tested until solubility limit
T1 construct: human erythrocyte membranes as a AChE source; from tissue; host or cells: human erythrocyte membranes
T1 sequence (P22303 32-617 isoform P22303-2 limits assumed): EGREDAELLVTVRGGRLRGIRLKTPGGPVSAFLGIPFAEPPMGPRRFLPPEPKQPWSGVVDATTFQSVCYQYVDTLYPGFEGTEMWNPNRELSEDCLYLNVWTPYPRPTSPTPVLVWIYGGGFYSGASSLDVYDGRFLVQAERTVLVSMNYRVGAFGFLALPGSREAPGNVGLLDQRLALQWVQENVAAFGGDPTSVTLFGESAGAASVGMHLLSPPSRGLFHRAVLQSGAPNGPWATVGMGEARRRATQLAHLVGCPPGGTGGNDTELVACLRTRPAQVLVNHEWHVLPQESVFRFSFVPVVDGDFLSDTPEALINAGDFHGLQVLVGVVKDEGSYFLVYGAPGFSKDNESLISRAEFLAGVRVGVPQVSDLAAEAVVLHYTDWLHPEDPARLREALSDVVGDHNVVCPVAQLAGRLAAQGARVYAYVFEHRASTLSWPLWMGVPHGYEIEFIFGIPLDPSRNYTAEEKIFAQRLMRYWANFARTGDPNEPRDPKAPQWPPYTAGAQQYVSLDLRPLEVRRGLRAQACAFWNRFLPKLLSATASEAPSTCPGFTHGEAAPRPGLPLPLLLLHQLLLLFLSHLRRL

muscarinic receptors = test: Muscarinic receptors binding, radioligand [3H]-N-methylscopolamine, rat striatal membranes; details: at 10^−5 M
Method: The ability of prodrugs of formula G and/or inhibitors of formula G+ to nonselectively bind muscarinic receptors was evaluated with conventional radioligand binding method.
The ability of bio precursors and/or inhibitors to nonselectively bind muscarinic receptors was evaluated with conventional radioligand binding method.
The assay mixture (PBS Buffer, 300 μL), rat striatal membranes as a muscarinic receptors source (1 g/L, 100 μL), unknown compound at various concentrations (50 μL) and ^3H—N-methylscopolamine as specific radioligand of muscarinic receptors. The 60.0 minutes incubation time at room temperature was selected after preliminary experiments performed to ensure that the equilibrium between studied ligand and radioligand on muscarinic receptors is reached. The reaction was stopped by rapid vacuum filtration through Whatman GF/C filter paper (pre-soaked in a solution of polyethylenimine (0.1%) to reduce binding to filters). Filters were subsequently washed with ice-cold buffer (PBS Buffer, 3×1.5 mL) and placed overnight in 3 mL of Ready-Safe scintillation cocktail (Beckman Coulter, Inc.). Radioactivity was measured using a Wallac liquid scintillation counter. Each experiment was carried out twice in duplicate.

Swiss albinos mice = test: Acute toxicity in mice; assay type: in vivo; details: female and male Swiss albinos mice, intraperitoneal injection; compound 67 tested under its inclusion form as compound 82
Method: The Acute toxicity studies were carried out using female and male Swiss albinos mice (25-35 g). Most of the compounds show a very low toxicity, namely with a DL50 higher than 10 mg/kg. […] The pharmacokinetic study was carried out using female and male Swiss albinos mice for the determination of half-life and distribution volume of a compound of the invention
The toxicity studies were carried out using female and male Swiss albinos mice (25-35 g). Animals were kept in a temperature-controlled environment (23±2° C.) with a 12 h light-dark cycle and food and water were freely available. The animals were divided into one control group and five treated groups, each group consisting of six animals. The control group received saline and each treated group received the studied ligand in a dose of 1, 3, 10, 30 and 100 mg/kg by intraperitoneal injection. The animals were observed continuously for 3 h, and then they were observed each hour during 72 h after administering the compound in order to observe any changes in general behaviour or other physiological activities. At the end of the experiment, animals were sacrificed by cervical displacement.

[2] = Pharmacokinetic: half-life and distribution volume in mice, plasma HPLC; details: both, Swiss albino, mouse, in vivo, ip, 10 mg/kg
[3] = human erythrocyte membranes, acetylthiocholine iodide, pH 7.4, 10 min, room temperature, read-out: Inhibition of human acetylcholinesterase (apparent IC50)

| SMILES | Inhibition of human acetylcholinesterase (apparent IC50), result in words ([1]; human erythrocyte membranes) | IC50 [1, 3] [nM] | Displacement of [^3H] N-methylscopolamine from muscarinic receptors (muscarinic receptors) | also measured |
| --- | --- | --- | --- | --- |
| CCNC(=O)Oc1cccc2c1CC(C(=O)OC)=CN2C [Example 76, Methyl 1-Methyl-5-(N-Ethylcarbamate)-1,4-Dihydroquinoline-3-Carboxylate] | No inhibition until |  |  |  |
| COC(=O)c1cc2c(OC(=O)N(C)C)cc(OC(=O)N(C)C)cc2[n+](C)c1 [Example 73, Methyl 5,7-Bis(N,N-Dimethylcarbamate)-1-Methylquinolinium-3-Carboxylate Triflate] |  | > 10000 |  |  |
| CCOC(=O)C1=CN(C)c2cc(OC(=O)N(C)C)ccc2C1 [Example 1, ethyl 1-methyl-7-(N,N-dimethylcarbamate)-1,4-dihydroquinoline-3-carboxylate] | No inhibition until |  | 0% at 10^−5 M |  |
| CNC(=O)c1cc2c(OC(=O)N(C)C)cccc2[n+](C)c1 [Compound 68D, 5-(N,N-dimethylcarbamate)-1-methyl-3-(N-methylcarboxamido)quinolinium triflate] |  | 29 | 0% à 10^−5 M |  |
| CN(C)C(=O)Oc1cccc2c[n+](C)ccc12 [Example 71, 5-(N,N-dimethylcarbamate)-2-methylisoquinolinium triflate] |  | 50 |  |  |
| CCOC(=O)C1=CN(C)c2cccc(OC(=O)N(C)C)c2C1 [Example 2, ethyl 1-methyl-5-(N,N-dimethylcarbamate)-1,4-dihydroquinoline-3-carboxylate] | No inhibition until |  | 0% at 10^−5 M |  |
| CCCNC(=O)c1cc2ccc(OC(=O)N(C)C)cc2[n+](C)c1 [Compound 78C, 7-(N,N-dimethylcarbamate)-3-(N-propylcarboxamido)-1-methylquinolinium triflate] |  | 50000 | 20% at 10^−5 M |  |
| CNC(=O)C1=CN(C)c2cccc(OC(=O)N(C)C)c2C1 [Example 68, 5-(N,N-dimethylcarbamate)-1-methyl-3-(N-methylcarboxamido)-1,4-dihydroquinoline] | No inhibition until |  | 0% at 10^−5 M |  |
| COC(=O)C1=CN(C)c2cccc(OC(=O)N(C)C)c2C1 [Example 67, methyl 5-(N,N-dimethylcarbamate)-1-methyl-1,4-dihydroquinoline-3-carboxylate] | No inhibition until |  | 0% at 10^−5 M | Acute toxicity (DL50) (Swiss albinos mice): 25 mg/kg; C0 [2]: 806 nM; half-life ([2]; Plasmatic half-life time T1/2, mice, intraperitoneal injection of 10 mg/kg of compound 67 under its inclusion form (example 82)): 14 min |
| COC(=O)c1cc2cccc(OC(=O)N(C)C)c2[n+](C)c1 [Example 74, Methyl 8-(N,N-Dimethylcarbamate)-1-Methylquinolinium-3-Carboxylate Triflate] |  | 1400 |  |  |
| CCOC(=O)c1cc2c(OC(=O)N(C)C)cccc2[n+](C)c1 [Compound 2E, Ethyl 5-(N,N-dimethylcarbamate)-1-methylquinolinium-3-carboxylate triflate] |  | 7 | 0% at 10^−5 M |  |
| CCCNC(=O)C1=CN(C)c2cc(OC(=O)N(C)C)ccc2C1 [Example 78, 1-Methyl-3-(N-Propylcarboxamido)-7-(N,N-Dimethylcarbamate)-1,4-Dihydroquinoline] | No inhibition until |  | 25% at 10^−5 M |  |
| CN(C)C(=O)Oc1cccc2c1CC(C(=O)N1CCOCC1)=CN2C [Example 70, morpholine 4-[5-(N,N-dimethylcarbamate)-1-methyl-1,4-dihydroquinolyl-3-carbonyl]] | No inhibition until |  | 0% à 10^−5 M |  |
| CN(C)C(=O)Oc1ccc2cc[n+](C)cc2c1 [Example 72, 7-(N,N-Dimethylcarbamate)-2-Methylisoquinolinium Triflate] |  | 5000 |  |  |
| CCNC(=O)Oc1cccc2c1cc(C(=O)OC)c[n+]2C [Compound 76B, Methyl 5-(N-ethylcarbamate)-1-methylquinolinium-3-carboxylate triflate] |  | 6000 |  |  |
| CN(C)C(=S)Oc1cccc2c[n+](C)ccc12 [Example 75, 2-Methyl-5-(N,N-Dimethylthiocarbamate)-O-Isoquinolinium Triflate] |  | > 10000 |  |  |
| CCOC(=O)c1cc2ccc(OC(=O)N(C)C)cc2[n+](C)c1 [Compound 1D, ethyl 1-methyl-7-(N,N-dimethylcarbamate)quinolinium-3-carboxylate triflate] |  | 500 | 0% at 10^−5 M |  |
| CCOC(=O)c1cc2cccc(OC(=O)N(C)C)c2[n+](C)c1 [Example 77, Ethyl 1-Methyl-8-(N,N-Dimethylcarbamate)Quinolinium-3-Carboxylate Triflate] |  | 8000 |  |  |
| CN(C)C(=O)Oc1cccc2c1cc(C(=O)N(C)C)c[n+]2C [Compound 69D, 5-(N,N-dimethylcarbamate)-3-(N,N-dimethylcarboxamido)-1-methylquinolinium triflate] |  | 15 | 0% à 10^−5 M |  |
| CCOC(=O)c1ccc[n+](Cc2ccc(OC(=O)N(C)C)cc2)c1 [Example 80] |  | 227 |  |  |
| COC(=O)c1cc2c(OC(=O)N(C)C)cccc2[n+](C)c1 [Compound 67E, Methyl 5-(N,N-dimethylcarbamate)-1-methylquinolinium-3-carboxylate triflate] |  |  | 0% at 10^−5 M | IC50 [1]: 110 nM |
| CN(C)C(=O)Oc1cccc2c1cc(C(=O)N1CCOCC1)c[n+]2C [Compound 70D, 5-(N,N-dimethylcarbamate)-1-methyl-3-(morpholinocarboxy)quinolinium triflate] |  | 860 | 0% à 10^−5 M |  |
